EC50 data for 20 compounds are collected here from ChEMBL document CHEMBL1141655, “Structure-activity relationships of Bak derived peptides: affinity and specificity modulations by amino acid replacement” (Eur J Med Chem, 2008).

Non-standard residues stand in square brackets, D forms with d. Residues, ends and D or L forms follow the SMILES beside them. 2Nal = N[C@@H](Cc1ccc2ccccc2c1)C(=O)O Some results are limits rather than exact numbers.

In the test the target is Bcl-2-like protein 1 (Homo sapiens, UniProt Q07817). As to the kind of experiment: Binding affinity to recombinant Bcl-XL expressed in Escherichia coli BL21 by fluorescence polarization assay.
Chain of Bcl-2-like protein 1 (Q07817 whole entry): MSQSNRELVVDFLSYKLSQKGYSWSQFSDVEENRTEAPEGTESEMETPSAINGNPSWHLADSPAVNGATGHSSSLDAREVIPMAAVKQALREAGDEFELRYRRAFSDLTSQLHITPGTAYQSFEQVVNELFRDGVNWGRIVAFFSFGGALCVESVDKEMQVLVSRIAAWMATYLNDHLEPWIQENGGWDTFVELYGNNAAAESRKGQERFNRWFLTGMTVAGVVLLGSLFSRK
For `CC[C@H](C)[C@H](NC(=O)[C@H](C)NC(=O)[C@H](CC(C)C)NC(=O)[C@H](CCC(N)=O)NC(=O)[C@H](CCCN=C(N)N)NC(=O)CNC(=O)[C@@H](NC(=O)[C@H](CCC(N)=O)NC(=O)CN)C(C)C)C(=O)N[C@H](C(=O)NCC(=O)N[C@@H](CC(=O)O)C(=O)N[C@@H](CC(=O)O)C(=O)N[C@@H](Cc1ccc(I)cc1)C(=O)N[C@@H](CC(N)=O)C(=O)N[C@@H](CCCN=C(N)N)C(=O)O)[C@@H](C)CC`, the half-maximal effective concentration (EC50) came out at 0.045 µM. In the case of `CC[C@H](C)[C@H](NC(=O)[C@H](C)NC(=O)[C@H](CC(C)C)NC(=O)[C@H](CCC(N)=O)NC(=O)[C@H](CCCN=C(N)N)NC(=O)CNC(=O)[C@@H](NC(=O)[C@H](CCC(N)=O)NC(=O)CN)C(C)C)C(=O)N[C@H](C(=O)NCC(=O)N[C@@H](CC(=O)O)C(=O)N[C@@H](CC(=O)O)C(=O)N[C@@H](Cc1ccccc1)C(=O)N[C@@H](CC(N)=O)C(=O)N[C@@H](CCCN=C(N)N)C(=O)O)[C@@H](C)CC`, the EC50 is 0.054 µM. In the case of `CC[C@H](C)[C@H](NC(=O)[C@H](C)NC(=O)[C@H](CC(C)C)NC(=O)[C@H](CCC(N)=O)NC(=O)[C@H](CCCN=C(N)N)NC(=O)CNC(=O)[C@@H](NC(=O)[C@H](CCC(N)=O)NC(=O)CN)C(C)C)C(=O)N[C@H](C(=O)NCC(=O)N[C@@H](CC(=O)O)C(=O)N[C@@H](CC(=O)O)C(=O)N[C@@H](C)C(=O)N[C@@H](CC(N)=O)C(=O)N[C@@H](CCCN=C(N)N)C(=O)O)[C@@H](C)CC` it was 93 µM. For the compound `CC[C@H](C)[C@H](NC(=O)[C@H](C)NC(=O)[C@H](CC(C)C)NC(=O)[C@H](CCC(N)=O)NC(=O)[C@H](CCCN=C(N)N)NC(=O)CNC(=O)[C@@H](NC(=O)[C@H](CCC(N)=O)NC(=O)CN)C(C)C)C(=O)N[C@@H](Cc1ccc2ccccc2c1)C(=O)NCC(=O)N[C@@H](CC(=O)O)C(=O)N[C@@H](CC(=O)O)C(=O)N[C@H](C(=O)N[C@@H](CC(N)=O)C(=O)N[C@@H](CCCN=C(N)N)C(=O)O)[C@@H](C)CC`, the EC50 is 1.3 µM. In the case of `CC[C@H](C)[C@H](NC(=O)[C@H](C)NC(=O)[C@H](Cc1cccc(Cl)c1)NC(=O)[C@H](CCC(N)=O)NC(=O)[C@H](CCCN=C(N)N)NC(=O)CNC(=O)[C@@H](NC(=O)[C@H](CCC(N)=O)NC(=O)CN)C(C)C)C(=O)N[C@H](C(=O)NCC(=O)N[C@@H](CC(=O)O)C(=O)N[C@@H](CC(=O)O)C(=O)N[C@H](C(=O)N[C@@H](CC(N)=O)C(=O)N[C@@H](CCCN=C(N)N)C(=O)O)[C@@H](C)CC)[C@@H](C)CC` it was 0.359 µM; in that of `CC[C@H](C)[C@H](NC(=O)[C@H](C)NC(=O)[C@H](CC(C)C)NC(=O)[C@H](CCC(N)=O)NC(=O)[C@H](CCCNC(=N)N)NC(=O)CNC(=O)[C@@H](NC(=O)[C@H](CCC(N)=O)NC(=O)CN)C(C)C)C(=O)N[C@H](C(=O)NCC(=O)N[C@@H](CC(=O)O)C(=O)N[C@@H](CC(=O)O)C(=O)N[C@@H](CCC(=O)O)C(=O)N[C@@H](CC(N)=O)C(=O)N[C@@H](CCCNC(=N)N)C(=O)O)[C@@H](C)CC`, over 10 µM; in that of `CC[C@H](C)[C@H](NC(=O)[C@H](C)NC(=O)[C@H](CC(C)C)NC(=O)[C@H](CCC(N)=O)NC(=O)[C@H](CCCNC(=N)N)NC(=O)CNC(=O)[C@@H](NC(=O)[C@H](CCC(N)=O)NC(=O)CN)C(C)C)C(=O)N[C@@H](Cc1ccc([N+](=O)[O-])cc1)C(=O)NCC(=O)N[C@@H](CC(=O)O)C(=O)N[C@@H](CC(=O)O)C(=O)N[C@H](C(=O)N[C@@H](CC(N)=O)C(=O)N[C@@H](CCCNC(=N)N)C(=O)O)[C@@H](C)CC`, 1.47 µM. To `CC[C@H](C)[C@H](NC(=O)[C@H](C)NC(=O)[C@H](CC(C)C)NC(=O)[C@H](CCC(N)=O)NC(=O)[C@H](CCCN=C(N)N)NC(=O)CNC(=O)[C@@H](NC(=O)[C@H](CCC(N)=O)NC(=O)CN)C(C)C)C(=O)N[C@@H](Cc1cccc(Cl)c1)C(=O)NCC(=O)N[C@@H](CC(=O)O)C(=O)N[C@@H](CC(=O)O)C(=O)N[C@H](C(=O)N[C@@H](CC(N)=O)C(=O)N[C@@H](CCCN=C(N)N)C(=O)O)[C@@H](C)CC` belongs 0.2 µM. As for `CC[C@H](C)[C@H](NC(=O)[C@H](C)NC(=O)[C@H](CC(C)C)NC(=O)[C@H](CCC(N)=O)NC(=O)[C@H](CCCN=C(N)N)NC(=O)CNC(=O)[C@@H](NC(=O)[C@H](CCC(N)=O)NC(=O)CN)C(C)C)C(=O)N[C@H](C(=O)NCC(=O)N[C@@H](CC(=O)O)C(=O)N[C@@H](CC(=O)O)C(=O)N[C@@H](Cc1ccc2ccccc2c1)C(=O)N[C@@H](CC(N)=O)C(=O)N[C@@H](CCCN=C(N)N)C(=O)O)[C@@H](C)CC`, the EC50 was determined as 0.125 µM. Take `CC[C@H](C)[C@H](NC(=O)[C@H](CC(=O)O)NC(=O)[C@H](CC(=O)O)NC(=O)CNC(=O)[C@H](Cc1ccc(O)cc1)N(C)C(=O)[C@@H](NC(=O)[C@H](C)NC(=O)[C@H](CC(C)C)NC(=O)[C@H](CCC(N)=O)NC(=O)[C@H](CCCNC(=N)N)NC(=O)CNC(=O)[C@@H](NC(=O)[C@H](CCC(N)=O)NC(=O)CN)C(C)C)[C@@H](C)CC)C(=O)N[C@@H](CC(N)=O)C(=O)N[C@@H](CCCNC(=N)N)C(=O)O`: the EC50 worked out at 3.62 µM. To `CC[C@H](C)[C@H](NC(=O)[C@H](C)NC(=O)[C@H](CC(C)C)NC(=O)[C@H](CCC(N)=O)NC(=O)[C@H](CCCNC(=N)N)NC(=O)CNC(=O)[C@H](C)NC(=O)[C@H](CCC(N)=O)NC(=O)CN)C(=O)N[C@H](C(=O)NCC(=O)N[C@@H](CC(=O)O)C(=O)N[C@@H](CC(=O)O)C(=O)N[C@H](C(=O)N[C@@H](CC(N)=O)C(=O)N[C@@H](CCCNC(=N)N)C(=O)O)[C@@H](C)CC)[C@@H](C)CC` belongs 15 µM; to `CC[C@H](C)[C@H](NC(=O)[C@H](C)NC(=O)[C@H](CC(C)C)NC(=O)[C@H](CCC(N)=O)NC(=O)[C@H](CCCNC(=N)N)NC(=O)CNC(=O)[C@@H](NC(=O)[C@H](CCC(N)=O)NC(=O)CN)C(C)C)C(=O)N[C@H](C(=O)NCC(=O)N[C@@H](CC(=O)O)C(=O)N[C@@H](CC(=O)O)C(=O)N[C@@H](CC1CCCCC1)C(=O)N[C@@H](CC(N)=O)C(=O)N[C@@H](CCCNC(=N)N)C(=O)O)[C@@H](C)CC`, 0.058 µM; to `CCCC[C@H](NC(=O)[C@H](CC(=O)O)NC(=O)[C@H](CC(=O)O)NC(=O)CNC(=O)[C@@H](NC(=O)[C@@H](NC(=O)[C@H](C)NC(=O)[C@H](CC(C)C)NC(=O)[C@H](CCC(N)=O)NC(=O)[C@H](CCCN=C(N)N)NC(=O)CNC(=O)[C@@H](NC(=O)[C@H](CCC(N)=O)NC(=O)CN)C(C)C)[C@@H](C)CC)[C@@H](C)CC)C(=O)N[C@@H](CC(N)=O)C(=O)N[C@@H](CCCN=C(N)N)C(=O)O`, 0.118 µM. In the case of `CC[C@H](C)[C@H](NC(=O)[C@H](C)NC(=O)[C@H](Cc1cccc2ccccc12)NC(=O)[C@H](CCC(N)=O)NC(=O)[C@H](CCCNC(=N)N)NC(=O)CNC(=O)[C@@H](NC(=O)[C@H](CCC(N)=O)NC(=O)CN)C(C)C)C(=O)N[C@H](C(=O)NCC(=O)N[C@@H](CC(=O)O)C(=O)N[C@@H](CC(=O)O)C(=O)N[C@H](C(=O)N[C@@H](CC(N)=O)C(=O)N[C@@H](CCCNC(=N)N)C(=O)O)[C@@H](C)CC)[C@@H](C)CC`, the EC50 is over 10 µM. In the case of `CC[C@H](C)[C@H](NC(=O)[C@H](C)NC(=O)[C@H](CC(C)C)NC(=O)[C@H](CCC(N)=O)NC(=O)[C@H](CCCN=C(N)N)NC(=O)CNC(=O)[C@@H](NC(=O)[C@H](CCC(N)=O)NC(=O)CN)C(C)C)C(=O)N[C@@H](Cc1cccc2ccccc12)C(=O)NCC(=O)N[C@@H](CC(=O)O)C(=O)N[C@@H](CC(=O)O)C(=O)N[C@H](C(=O)N[C@@H](CC(N)=O)C(=O)N[C@@H](CCCN=C(N)N)C(=O)O)[C@@H](C)CC`, the 50% effective concentration (EC50) was found to be 0.299 µM. To `CC[C@H](C)[C@H](NC(=O)[C@H](C)NC(=O)[C@H](CC(C)C)NC(=O)[C@H](CCC(N)=O)NC(=O)[C@H](CCCN=C(N)N)NC(=O)CNC(=O)[C@@H](NC(=O)[C@H](CCC(N)=O)NC(=O)CN)C(C)C)C(=O)N[C@H](C(=O)NCC(=O)N[C@@H](CC(=O)O)C(=O)N[C@@H](CC(=O)O)C(=O)N[C@@H](Cc1ccc(O)cc1)C(=O)N[C@@H](CC(N)=O)C(=O)N[C@@H](CCCN=C(N)N)C(=O)O)[C@@H](C)CC` belongs 0.159 µM; to `CC[C@H](C)[C@H](NC(=O)[C@H](C)NC(=O)[C@H](Cc1ccc2ccccc2c1)NC(=O)[C@H](CCC(N)=O)NC(=O)[C@H](CCCNC(=N)N)NC(=O)CNC(=O)[C@@H](NC(=O)[C@H](CCC(N)=O)NC(=O)CN)C(C)C)C(=O)N[C@H](C(=O)NCC(=O)N[C@@H](CC(=O)O)C(=O)N[C@@H](CC(=O)O)C(=O)N[C@@H](Cc1ccccc1)C(=O)N[C@@H](CC(N)=O)C(=O)N[C@@H](CCCNC(=N)N)C(=O)O)[C@@H](C)CC` (H-GQVGRQ[2Nal]AIIGDDFNR-OH), 0.054 µM. As to `CC[C@H](C)[C@H](NC(=O)[C@H](C)NC(=O)[C@H](Cc1ccccc1)NC(=O)[C@H](CCC(N)=O)NC(=O)[C@H](CCCN=C(N)N)NC(=O)CNC(=O)[C@@H](NC(=O)[C@H](CCC(N)=O)NC(=O)CN)C(C)C)C(=O)N[C@H](C(=O)NCC(=O)N[C@@H](CC(=O)O)C(=O)N[C@@H](CC(=O)O)C(=O)N[C@H](C(=O)N[C@@H](CC(N)=O)C(=O)N[C@@H](CCCN=C(N)N)C(=O)O)[C@@H](C)CC)[C@@H](C)CC`, the concentration giving a half-maximal response (EC50) was 0.405 µM. Consider `CCCC[C@H](NC(=O)[C@@H](NC(=O)[C@H](C)NC(=O)[C@H](CC(C)C)NC(=O)[C@H](CCC(N)=O)NC(=O)[C@H](CCCN=C(N)N)NC(=O)CNC(=O)[C@@H](NC(=O)[C@H](CCC(N)=O)NC(=O)CN)C(C)C)[C@@H](C)CC)C(=O)NCC(=O)N[C@@H](CC(=O)O)C(=O)N[C@@H](CC(=O)O)C(=O)N[C@H](C(=O)N[C@@H](CC(N)=O)C(=O)N[C@@H](CCCN=C(N)N)C(=O)O)[C@@H](C)CC`, for which the EC50 worked out at 0.655 µM. To `CC[C@H](C)[C@H](NC(=O)[C@H](C)NC(=O)[C@H](C)NC(=O)[C@H](CCC(N)=O)NC(=O)[C@H](CCCN=C(N)N)NC(=O)CNC(=O)[C@@H](NC(=O)[C@H](CCC(N)=O)NC(=O)CN)C(C)C)C(=O)N[C@H](C(=O)NCC(=O)N[C@@H](CC(=O)O)C(=O)N[C@@H](CC(=O)O)C(=O)N[C@H](C(=O)N[C@@H](CC(N)=O)C(=O)N[C@@H](CCCN=C(N)N)C(=O)O)[C@@H](C)CC)[C@@H](C)CC` belongs 270 µM.

One may read the EC50 as the midpoint of the concentration-response curve.
